According to PubChem BioAssay AID1963444 (Molecular Pharmacology Branch, DTP, NCI, 2024):

System: HSSY-II complex spheroid growth, percent test/control
Test: Anticancer human tumor HSSY-II cell line growth inhibition [Asc];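 further: spheroids exposed to drug for 7 days before reading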
Details: for IC50: curve of first compound; for viability, T/C: stronger effect = lower value
How it was run: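 Tumor cells were grown as complex spheroids with human endothelial cells (HUVEC) and human mesenchymal stem cells as stroma. Agents were tested alone and in combination, in half-log steps down from the clinical Cmax, or from 10 microM where Cmax was unknown.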

[1] = second compound 0.01 µM, first compound 0.00316 µM
[2] = second compound 0.01 µM, first compound 0.01 µM
[3] = second compound 0.01 µM, first compound 0.0316 µM
[4] = second compound 0.01 µM, first compound 0.1 µM
[5] = second compound 0.01 µM, first compound 0.316 µM
[6] = second compound 0.01 µM, first compound 1 µM
[7] = second compound 0.0316 µM, first compound 0.00316 µM
[8] = second compound 0.0316 µM, first compound 0.01 µM
[9] = second compound 0.0316 µM, first compound 0.0316 µM
[10] = second compound 0.0316 µM, first compound 0.1 µM
[11] = second compound 0.0316 µM, first compound 0.316 µM
[12] = second compound 0.0316 µM, first compound 1 µM
[13] = second compound 0.1 µM, first compound 0.00316 µM
[14] = second compound 0.1 µM, first compound 0.01 µM
[15] = second compound 0.1 µM, first compound 0.0316 µM
[16] = second compound 0.1 µM, first compound 0.1 µM
[17] = second compound 0.1 µM, first compound 0.316 µM
[18] = second compound 0.1 µM, first compound 1 µM
[19] = second compound 0.316 µM, first compound 0.00316 µM
[20] = second compound 0.316 µM, first compound 0.01 µM
[21] = second compound 0.316 µM, first compound 0.0316 µM
[22] = second compound 0.316 µM, first compound 0.1 µM
[23] = second compound 0.316 µM, first compound 0.316 µM
[24] = second compound 0.316 µM, first compound 1 µM
[25] = second compound 1 µM, first compound 0.00316 µM
[26] = second compound 1 µM, first compound 0.01 µM
[27] = second compound 1 µM, first compound 0.0316 µM
[28] = second compound 1 µM, first compound 0.1 µM
[29] = second compound 1 µM, first compound 0.316 µM
[30] = second compound 1 µM, first compound 1 µM

**Q.** Which results are given for `CCN1CCN(Cc2ccc(Nc3ncc(F)c(-c4cc(F)c5nc(C)n(C(C)C)c5c4)n3)nc2)CC1` + CNC(C)C(=O)NC1CN(S(=O)(=O)c2cccc(S(=O)(=O)N3CCC4CCC(C(=O)NC(c5ccccc5)c5ccccc5)N4C(=O)C(NC(=O)C(C)NC)C3)c2)CCC2CCC(C(=O)NC(c3ccccc3)c3ccccc3)N2C1=O?
**A.** IC50 (second compound 0.01 µM): 0.12 µM; IC50 (second compound 0.0316 µM): 0.15 µM; IC50 (second compound 0.1 µM): 0.111 µM; IC50 (second compound 0.316 µM): 0.0875 µM; IC50 (second compound 1 µM): 0.096 µM; viability, T/C [1]: 95.3%; viability, T/C [2]: 92.5%; viability, T/C [3]: 60.6%; viability, T/C [4]: 54.2%; viability, T/C [5]: 39.9%; viability, T/C [6]: 23.2%; viability, T/C [7]: 78.1%; viability, T/C [8]: 83.9%; viability, T/C [9]: 66.7%; viability, T/C [10]: 53.2%; viability, T/C [11]: 42.3%; viability, T/C [12]: 23.4%; viability, T/C [13]: 68.5%; viability, T/C [14]: 78.3%; viability, T/C [15]: 59.1%; viability, T/C [16]: 51.5%; viability, T/C [17]: 37.4%; viability, T/C [18]: 24.1%; viability, T/C [19]: 86.5%; viability, T/C [20]: 89%; viability, T/C [21]: 68.9%; viability, T/C [22]: 45.2%; viability, T/C [23]: 37.6%; viability, T/C [24]: 23.9%; viability, T/C [25]: 88%; viability, T/C [26]: 76.8%; viability, T/C [27]: 66.9%; viability, T/C [28]: 46.7%; viability, T/C [29]: 35.4%; viability, T/C [30]: 18.8%

**Q.** Which IC50 (second compound 0.01 µM) does the source give for `Cn1ncnc1[C@H]1c2n[nH]c(=O)c3cc(F)cc(c23)N[C@@H]1c1ccc(F)cc1` + CNC(C)C(=O)NC1CN(S(=O)(=O)c2cccc(S(=O)(=O)N3CCC4CCC(C(=O)NC(c5ccccc5)c5ccccc5)N4C(=O)C(NC(=O)C(C)NC)C3)c2)CCC2CCC(C(=O)NC(c3ccccc3)c3ccccc3)N2C1=O here?
**A.** > 0.1 µM

**Q.** What about the IC50 (second compound 0.0316 µM) of the same compound?
**A.** 0.0225 µM

**Q.** And the IC50 (second compound 0.1 µM)?
**A.** 0.0243 µM

**Q.** What about the IC50 (second compound 0.316 µM) of the same compound?
**A.** 0.0153 µM

**Q.** And the IC50 (second compound 1 µM)?
**A.** 0.0825 µM

**Q.** What about the viability, T/C (second compound 0.01 µM, first compound 0.000316 µM) of the same compound?
**A.** 86.3%

**Q.** What about the viability, T/C (second compound 0.01 µM, first compound 0.001 µM) of the same compound?
**A.** 86%

**Q.** What about the viability, T/C [1] of the same compound?
**A.** 87.1%

**Q.** And the viability, T/C [2]?
**A.** 59.3%

**Q.** What about the viability, T/C [3] of the same compound?
**A.** 43.4%

**Q.** And the viability, T/C [4]?
**A.** 59.6%

**Q.** And the viability, T/C (second compound 0.0316 µM, first compound 0.000316 µM)?
**A.** 91.1%

**Q.** What about the viability, T/C (second compound 0.0316 µM, first compound 0.001 µM) of the same compound?
**A.** 93.2%

**Q.** What about the viability, T/C [7] of the same compound?
**A.** 80.8%

**Q.** What about the viability, T/C [8] of the same compound?
**A.** 60.7%

**Q.** What about the viability, T/C [9] of the same compound?
**A.** 36.8%

**Q.** What about the viability, T/C [10] of the same compound?
**A.** 53.4%

**Q.** And the viability, T/C (second compound 0.1 µM, first compound 0.000316 µM)?
**A.** 82.9%

**Q.** What about the viability, T/C (second compound 0.1 µM, first compound 0.001 µM) of the same compound?
**A.** 67.6%

**Q.** And the viability, T/C [13]?
**A.** 76.1%

**Q.** And the viability, T/C [14]?
**A.** 58.3%

**Q.** What about the viability, T/C [15] of the same compound?
**A.** 39.6%

**Q.** What about the viability, T/C [16] of the same compound?
**A.** 55.4%

**Q.** And the viability, T/C (second compound 0.316 µM, first compound 0.000316 µM)?
**A.** 93.8%

**Q.** And the viability, T/C (second compound 0.316 µM, first compound 0.001 µM)?
**A.** 92.5%

**Q.** And the viability, T/C [19]?
**A.** 80.1%

**Q.** And the viability, T/C [20]?
**A.** 53%

**Q.** What about the viability, T/C [21] of the same compound?
**A.** 37.7%

**Q.** And the viability, T/C [22]?
**A.** 54.4%

**Q.** What about the viability, T/C (second compound 1 µM, first compound 0.000316 µM) of the same compound?
**A.** 89.6%

**Q.** What about the viability, T/C (second compound 1 µM, first compound 0.001 µM) of the same compound?
**A.** 84.5%

**Q.** What about the viability, T/C [25] of the same compound?
**A.** 82%

**Q.** And the viability, T/C [26]?
**A.** 72.2%

**Q.** What about the viability, T/C [27] of the same compound?
**A.** 56.4%

**Q.** And the viability, T/C [28]?
**A.** 48.9%

**Q.** `O=C(c1cc(Cc2n[nH]c(=O)c3ccccc23)ccc1F)N1CCN(C(=O)C2CC2)CC1` + CNC(C)C(=O)NC1CN(S(=O)(=O)c2cccc(S(=O)(=O)N3CCC4CCC(C(=O)NC(c5ccccc5)c5ccccc5)N4C(=O)C(NC(=O)C(C)NC)C3)c2)CCC2CCC(C(=O)NC(c3ccccc3)c3ccccc3)N2C1=O was tested. Which IC50 (second compound 0.01 µM) did it give?
**A.** 2.65 µM

**Q.** What about the IC50 (second compound 0.0316 µM) of the same compound?
**A.** 3.38 µM

**Q.** And the IC50 (second compound 0.1 µM)?
**A.** 3.03 µM

**Q.** What about the IC50 (second compound 0.316 µM) of the same compound?
**A.** 3.22 µM

**Q.** What about the IC50 (second compound 1 µM) of the same compound?
**A.** 2.32 µM

**Q.** And the viability, T/C [3]?
**A.** 89%

**Q.** And the viability, T/C [4]?
**A.** 102%

**Q.** What about the viability, T/C [5] of the same compound?
**A.** 91.5%

**Q.** And the viability, T/C [6]?
**A.** 83.5%

**Q.** And the viability, T/C (second compound 0.01 µM, first compound 3.16 µM)?
**A.** 43.9%

**Q.** What about the viability, T/C (second compound 0.01 µM, first compound 10 µM) of the same compound?
**A.** 11.6%

**Q.** And the viability, T/C [9]?
**A.** 86.3%

**Q.** And the viability, T/C [10]?
**A.** 88.3%

**Q.** What about the viability, T/C [11] of the same compound?
**A.** 87.4%

**Q.** What about the viability, T/C [12] of the same compound?
**A.** 73.3%

**Q.** And the viability, T/C (second compound 0.0316 µM, first compound 3.16 µM)?
**A.** 53.3%

**Q.** And the viability, T/C (second compound 0.0316 µM, first compound 10 µM)?
**A.** 7.19%

**Q.** What about the viability, T/C [15] of the same compound?
**A.** 74.5%

**Q.** And the viability, T/C [16]?
**A.** 81.9%

**Q.** What about the viability, T/C [17] of the same compound?
**A.** 64.6%

**Q.** And the viability, T/C [18]?
**A.** 73.8%

**Q.** What about the viability, T/C (second compound 0.1 µM, first compound 3.16 µM) of the same compound?
**A.** 49.1%

**Q.** And the viability, T/C (second compound 0.1 µM, first compound 10 µM)?
**A.** 10.6%

**Q.** And the viability, T/C [21]?
**A.** 95.1%

**Q.** What about the viability, T/C [22] of the same compound?
**A.** 90.6%

**Q.** What about the viability, T/C [23] of the same compound?
**A.** 86.9%

**Q.** And the viability, T/C [24]?
**A.** 67.3%

**Q.** What about the viability, T/C (second compound 0.316 µM, first compound 3.16 µM) of the same compound?
**A.** 54.7%

**Q.** What about the viability, T/C (second compound 0.316 µM, first compound 10 µM) of the same compound?
**A.** 9.27%

**Q.** What about the viability, T/C [27] of the same compound?
**A.** 95.3%

**Q.** And the viability, T/C [28]?
**A.** 96.2%

**Q.** What about the viability, T/C [29] of the same compound?
**A.** 83%

**Q.** And the viability, T/C [30]?
**A.** 72%

**Q.** What about the viability, T/C (second compound 1 µM, first compound 3.16 µM) of the same compound?
**A.** 42%

**Q.** What about the viability, T/C (second compound 1 µM, first compound 10 µM) of the same compound?
**A.** 5.51%

**Q.** What does the source list for `O=C(c1ccc(F)c(F)c1Nc1ccc(I)cc1F)N1CC(O)([C@@H]2CCCCN2)C1` + CNC(C)C(=O)NC1CN(S(=O)(=O)c2cccc(S(=O)(=O)N3CCC4CCC(C(=O)NC(c5ccccc5)c5ccccc5)N4C(=O)C(NC(=O)C(C)NC)C3)c2)CCC2CCC(C(=O)NC(c3ccccc3)c3ccccc3)N2C1=O?
**A.** IC50 (second compound 0.01 µM): 0.587 µM; IC50 (second compound 0.0316 µM): 0.516 µM; IC50 (second compound 0.1 µM): 0.472 µM; IC50 (second compound 0.316 µM): 0.416 µM; IC50 (second compound 1 µM): 0.515 µM; viability, T/C [1]: 76.6%; viability, T/C [2]: 87.8%; viability, T/C [3]: 112%; viability, T/C [4]: 108%; viability, T/C [5]: 82.2%; viability, T/C [6]: 22.4%; viability, T/C [7]: 95.7%; viability, T/C [8]: 99.8%; viability, T/C [9]: 99.2%; viability, T/C [10]: 107%; viability, T/C [11]: 69%; viability, T/C [12]: 24.4%; viability, T/C [13]: 93%; viability, T/C [14]: 74.1%; viability, T/C [15]: 98.9%; viability, T/C [16]: 99.8%; viability, T/C [17]: 65.8%; viability, T/C [18]: 20.6%; viability, T/C [19]: 98.9%; viability, T/C [20]: 100%; viability, T/C [21]: 83.1%; viability, T/C [22]: 111%; viability, T/C [23]: 59.2%; viability, T/C [24]: 20.4%; viability, T/C [25]: 98.3%; viability, T/C [26]: 114%; viability, T/C [27]: 99.7%; viability, T/C [28]: 95.1%; viability, T/C [29]: 70.7%; viability, T/C [30]: 21.9%
